Experimental data published in the supplement of paper PMC11451515.

Tests used:
Assay in all cases: AUC of viability dose-response curve (% viability x log10 dose units); higher = less sensitive
Conditions in all cases: 48 h
NOMO1 = test system: NOMO1
Summary of the method: (§1)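 Leukemia cells adapted to each medium were seeded at 500 or 1000 cells/well in 1536-well plates and dosed with library compounds in DMSO at 11 threefold doses from 47 μM to 0.79 nM for 48 h at 37°C. CellTiter-Glo One luminescence was normalised per plate to DMSO and cell-free wells, then fitted with a four-parameter log-logistic model over log10 doses. Area under the curve was taken from this fit by the trapezoidal rule, with curves above full viability scaled and curves failing quality control removed.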

SEM cells = test system: SEM cells
Summary of the method: as §1

P12-Ichikawa = test system: P12-Ichikawa
Summary of the method: as §1

[1] = RPMI 5 mM glucose + 10% dialyzed FBS

Row | SMILES | AUC of viability dose-response curve (NOMO1; HPLM + 10% dialyzed FBS) | AUC of viability dose-response curve (NOMO1; RPMI 5 mM glucose + 10% FBS) | AUC of viability dose-response curve (NOMO1; [1]) | AUC of viability dose-response curve (SEM cells; HPLM + 10% dialyzed FBS) | AUC of viability dose-response curve (SEM cells; RPMI 5 mM glucose + 10% FBS) | AUC of viability dose-response curve (SEM cells; [1]) | AUC of viability dose-response curve (P12-Ichikawa; HPLM + 10% dialyzed FBS) | AUC of viability dose-response curve (P12-Ichikawa; RPMI 5 mM glucose + 10% FBS) | AUC of viability dose-response curve (P12-Ichikawa; [1])
1 | O=C(c1ccc(F)cc1)C1CCN(CCn2c(=O)[nH]c3ccccc3c2=O)CC1 | 469 | 457 | 453 | 469 | 474 | 466 | 455 | 448 | 451
2 | COc1ccc(CCC(=O)Nc2nc3ccc(Cl)cc3s2)cc1OC | 454 | 458 | 455 | 463 | 461 | 472 | 466 | 472 | 462
3 | Cc1nc2c([nH]1)-c1ccccc1N(C(=O)c1ccc(NC(=O)c3ccccc3-c3ccccc3)cc1)CC2 | 470 | 444 | 468 | 451 | 457 | 449 | 466 | 467 | 471
4 | COc1ccc(-c2nc3cc(C4=NNC(=O)CC4C)ccc3[nH]2)cc1 (configuration not stated) | 445 | 459 | 461 | 467 | 462 | 465 | 473 | 465 | 470
5 | NC/1=N/C(=O)N(/C=C1)[C@H]2CC[C@@H](CO)O2 | 435 | 404 | 422 | 437 | 415 | 385 |  |  | 
6 | CN(C)[C@H]\1[C@@H]2[C@@H](O)[C@@H]\3C(=C)C4=C(C(=CC=C4)O)C(=O)C3=C(\O)[C@@]2(O)C(=O)\C(=C1O)C(N)=O | 449 | 462 | 474 | 452 | 463 | 466 | 465 | 468 | 472
7 | CC1=C2N=C([NH]C2=CC(=C1)N3CCOCC3)\C4=C(NC[C@@H](O)C5=CC=CC(=C5)Cl)\C=C/NC4=O | 385 | 411 | 378 |  |  |  | 469 | 469 | 465
8 | COc1cc2nc(-c3ccc(N4CCN(C)CC4)cc3)nc(NCCN3CCOCC3)c2cc1OC | 300 | 336 | 302 | 248 | 290 | 271 | 340 | 350 | 345
9 | COC1=CC=C2C(=CC=NC2=C1)OC3=CC=C(NC(=O)\C4=C(C)\N(CC(C)(C)O)N(C4=O)C5=CC=CC=C5)C=C3F | 459 | 468 | 467 | 404 | 379 | 365 | 472 | 468 | 469
10 | CC1(C)O[C@H]2CC(=O)OC[C@]23[C@H]2CC[C@@]4(C)[C@H](c5ccoc5)OC(=O)[C@H]5O[C@]54[C@]2(C)C(=O)C[C@@H]13 | 462 | 465 | 461 | 463 | 444 | 438 | 468 | 446 | 469
11 | CCCCCCCCCCCCCCCC(=O)OC[C@@H](NC(=O)C(Cl)Cl)[C@H](O)c1ccc([N+](=O)[O-])cc1 | 450 | 461 | 445 | 464 | 468 | 455 | 470 | 429 | 461
12 | O=C(C1CCCCC1)N1CC(=O)N2CCc3ccccc3C2C1 (configuration not stated) | 445 | 466 | 452 | 434 | 407 | 406 | 386 | 385 | 369
13 | Cn1cc(-c2ccncc2)c(-c2ccc(OCc3ccc4ccccc4n3)cc2)n1 | 454 | 451 | 463 | 469 | 445 | 465 | 449 | 433 | 440
14 | CC(C)c1ccc2oc3nc(N)c(C(=O)O)cc3c(=O)c2c1 | 469 | 470 | 472 | 466 | 449 | 462 | 467 | 470 | 474
15 | C=C1C[C@@]2(O)O[C@@]3(C[C@H]2C(C)C)[C@@H](C)CC[C@@H]13 | 466 | 451 | 465 |  |  |  | 469 | 460 | 449
16 | COc1ccc(-c2c(-c3ccc(O)cc3O)n[nH]c2C)cc1 | 449 | 467 | 466 | 428 | 405 | 431 | 465 | 464 | 468
17 | CN1C(=O)COc2c(C(=O)NC3CN4CCC3CC4)cc(Cl)cc21 (configuration not stated) | 448 | 464 | 439 | 457 | 453 | 471 |  |  | 
18 | CC1=C(C)C2=C(S1)[N]3C(=NN=C3[C@H](CC(=O)OC(C)(C)C)/N=C2/C4=CC=C(Cl)C=C4)C | 292 | 286 | 296 | 249 | 264 | 251 | 311 | 313 | 305
19 | C[C@@]12OC(=O)[C@@]1(NC(=O)[C@@H]2CCCl)[C@@H](O)[C@H]\3CCC\C=C3 | 243 | 254 | 254 | 183 | 182 | 177 | 256 | 253 | 247
20 | c1cc(OCCN2CCCCC2)cc(-c2n[nH]c3ccc(-c4nc[nH]n4)cc23)c1 | 467 | 463 | 468 | 412 | 441 | 413 |  |  | 
21 | Cl.Cl.Fc1ccc(C(OCCN2CCN(CCCc3ccccc3)CC2)c2ccc(F)cc2)cc1 | 438 | 457 | 446 | 460 | 458 | 458 | 470 | 467 | 465
22 | Cn1cc(-c2ccc3ncc(Cc4ccc5ncccc5c4)n3n2)cn1 | 468 | 477 | 472 | 450 | 452 | 450 | 472 | 474 | 470
23 | Cc1c(OCC(F)(F)F)ccnc1C[S+]([O-])c1nc2ccccc2[nH]1 (configuration not stated) | 456 | 469 | 448 | 420 | 475 | 453 | 466 | 459 | 471
24 | NC\1=N\C(=O)N(\C=N1)[C@H]2C[C@H](O)[C@@H](CO)O2 | 375 | 402 | 417 | 362 | 327 | 309 | 382 | 368 | 378

Row | SMILES | AUC of viability dose-response curve (NOMO1; HPLM + 10% dialyzed FBS) | AUC of viability dose-response curve (NOMO1; RPMI 5 mM glucose + 10% FBS) | AUC of viability dose-response curve (NOMO1; [1]) | AUC of viability dose-response curve (SEM cells; HPLM + 10% dialyzed FBS) | AUC of viability dose-response curve (SEM cells; RPMI 5 mM glucose + 10% FBS) | AUC of viability dose-response curve (SEM cells; [1]) | AUC of viability dose-response curve (P12-Ichikawa; HPLM + 10% dialyzed FBS) | AUC of viability dose-response curve (P12-Ichikawa; RPMI 5 mM glucose + 10% FBS) | AUC of viability dose-response curve (P12-Ichikawa; [1])
25 | CN(C)CCC=C1C2=C(C=CC=C2)\C=C/C3=C1C=CC=C3 | 418 | 440 | 438 | 459 | 438 | 466 | 449 | 401 | 469
26 | CCOc1ccccc1OCCNC(C)Cc1ccc(OC)c([S+](N)(=O)[O-])c1 (configuration not stated) | 468 | 461 | 466 | 459 | 462 | 464 | 471 | 462 | 471
27 | Cc1ccccc1C(C(=O)NC1CCCCC1)N(C(=O)CNc1ccc(C#N)cc1)c1cccc(F)c1 (configuration not stated) |  |  |  | 471 | 454 | 470 | 453 | 476 | 467
28 | COc1cc2ncnc(Nc3ccc(F)c(Cl)c3)c2cc1OCCCN1CCOCC1 | 425 | 452 | 443 | 408 | 419 | 425 | 446 | 446 | 463
29 | CC(C)(O)CNc1nc(Nc2ccnc(C(F)(F)F)c2)nc(-c2cccc(C(F)(F)F)n2)n1 | 442 | 409 | 418 | 408 | 363 | 382 | 371 | 369 | 381
30 | O=C1c2cccc(O)c2C(=O)c2c(O)cc(CO)cc21 | 417 | 424 | 451 | 474 | 451 | 422 | 452 | 450 | 431
31 | O=C(NC1CC1)c1cccc(-c2ccc3c(NC(=O)C4CC4)n[nH]c3c2)c1 | 450 | 448 | 451 | 430 | 425 | 422 | 418 | 419 | 426
32 | c1cc(-c2sc(-c3ccncc3)c(-c3ccncc3)c2-c2ccncc2)ccn1 | 472 | 439 | 464 | 377 | 350 | 365 | 472 | 466 | 471
33 | Nc1ccc([S+](=O)([O-])Nc2ccccn2)cc1 | 470 | 467 | 464 | 438 | 468 | 448 | 467 | 439 | 445
34 | Cc1cc(SCc2sc(-c3ccc(C(F)(F)F)c(F)c3)nc2C)ccc1OCC(=O)O | 458 | 439 | 467 | 461 | 432 | 446 | 466 | 449 | 439
35 | COC1=CC=C(C=C1)C/2=C/OC3=CC(=CC=C3C2=O)O | 422 | 451 | 437 | 445 | 458 | 430 | 451 | 461 | 456
36 | C[C@H]1[C@@H](CC(C[C@H]2O[C@@H]3O[C@]4(C)CC[C@H]5[C@H](C)CC[C@@H]([C@H]2C)[C@@]35OO4)C[S+](=O)([O-])c2ccc(COC(=O)N(C)C)cc2)O[C@@H]2O[C@]3(C)CC[C@H]4[C@H](C)CC[C@@H]1[C@@]24OO3 | 301 | 329 | 299 | 297 | 284 | 284 | 351 | 348 | 341
37 | CC1=C(/C=C/C(C)=C/C=C/C(C)=C/C(=O)Nc2ccc(O)cc2)C(C)(C)CCC1 | 347 | 348 | 341 | 301 | 322 | 274 | 326 | 311 | 276
38 | CC1(C)OC/2=C(\[C@H](NCC3=CC=CC=C3)[C@@H]1O)C(=O)C4=CC=CC=C4C2=O |  |  |  | 417 | 363 | 413 | 424 | 397 | 416
39 | c1ccc2c(-c3cnn4cc(-c5ccc(N6CCNCC6)cc5)cnc34)ccnc2c1 |  |  |  | 355 | 379 | 394 |  |  | 
40 | CCC(CC)[C@H](NC(C)=O)[C@@H]1[C@H](O)[C@@H](C(=O)O)C[C@H]1NC(=N)N | 404 | 407 | 395 | 335 | 394 | 365 |  |  | 
41 | COc1cc(N2CCC(N3CCN(C)CC3)CC2)ccc1Nc1ncnc(Nc2ccccc2[S+](=O)([O-])C(C)C)n1 |  |  |  | 361 | 354 | 400 | 447 | 458 | 451
42 | CN1[C@@H]2CC(O)C[C@H]1[C@@H]1O[C@@H]12 (some centres not stated) | 451 | 453 | 451 |  |  |  | 455 | 448 | 454
43 | COc1ccc(Cn2ccc3ccc(C(=O)NO)cc32)cc1 | 446 | 461 | 469 | 464 | 460 | 462 |  |  | 
44 | CN(C(=O)c1ccc(F)cc1C(F)(F)F)C1CCN(c2nnc(-c3ccnn3C)c3ccccc23)CC1 |  |  |  | 331 | 373 | 326 | 387 | 365 | 355
45 | O=P(O)(O)C(O)(Cc1cccnc1)P(=O)(O)[O][Na] (configuration not stated) |  |  |  | 411 | 409 | 406 |  |  | 
46 | CC(C)[C@@H](N(CCCN)C(=O)C1=CC=C(C)C=C1)C/2=C(\CC3=CC=CC=C3)C(=O)C4=C(O2)C=C(Cl)C=C4 |  |  |  | 116 | 96.8 | 99.8 |  |  | 
47 | CCCCc1oc2ccc(NS(C)(=O)=O)cc2c1C(=O)c1ccc(OCCCN(CCCC)CCCC)cc1 | 367 | 332 | 361 |  |  |  | 414 | 409 | 413
48 | CCN(CC)CCOC1=CC=C(NC2=NC=C3\C=C(/C(=O)N(C)C3=N2)C4=C(Cl)C=CC=C4Cl)C=C1 | 343 | 359 | 355 |  |  |  | 371 | 365 | 367
